In patent publication US11826364B2, “Treatment for epilepsy” (Katholieke Universiteit Leuven, priority 2017, dated 2023):

Columns and labels:
[1] = test system: zebrafish larvae; test: Non-invasive local field potential (LFP) recordings from the optic tectum, zebrafish PTZ seizure model; format: in vivo, zebrafish (Danio rerio); settings: MTC (20 μg/mL); 2 hours incubation; 10 min recording
Description: Non-invasive LFP recordings were measured from the midbrain (optic tectum) of 7 dpf zebrafish larvae pre-incubated with VHC only, PTZ only, compound and VHC, or compound and PTZ. Experiments were performed as described in Copmans et al. (2018) Neurochem. Int. 112, 124-133;
Copmans (2018) ACS chemical neuroscience. In brief, larvae were incubated for approximately 2 hours with VHC (1% DMSO) or test compound (1% DMSO) in a 100 μL volume. After incubation, an equal volume of VHC (embryo medium) or 40 mM PTZ (20 mM working concentration) was added to the well for 15 minutes prior to recording. These steps occurred at 28° C., while further manipulation and electrophysiological recordings occurred at room temperature (±21° C.). The larva was embedded in 2% low melting point agarose (Invitrogen) and the signal electrode (an electrode inside a soda-glass pipet (1412227, Hilgenberg) pulled with a DMZ Universal Puller (Zeitz, Germany), diameter±20 microns, containing artificial cerebrospinal fluid (ACSF: 124 mM NaCl, 10 mM glucose, 2 mM KCl, 2 mM MgSO4, 2 mM CaCl2, 1.25 mM KH2PO4, and 26 mM NaHCO3, 300-310 mOsmols)) was positioned on the skin covering the optic tectum. A differential extracellular amplifier (DAGAN, USA) amplified the voltage difference between the signal (measured by the signal electrode) and the reference electrode. The differential signal was band pass filtered at 0.3-300 Hz and digitized at 2 kHz via a PCI-6251 interface (National instruments, UK) using WinEDR (John Dempster, University of Strathclyde, UK). A grounding electrode grounded the electrical system. All electrodes were connected with ACSF. Each recording lasted 600 seconds. Manual analysis was completed by quantification of the number, cumulative duration, and mean duration of epileptiform-like events with Clampfit 10.2 software (Molecular Devices Corporation, USA). An electrical discharge was considered epileptiform if it was a poly-spiking event comprising at least 3 spikes with a minimum amplitude of three times the baseline amplitude and a duration of at least 100 milliseconds. Data are expressed as mean±SD.

[2] = Solubility in the injection solvent (PEG200:DMSO 1:1); format: physicochemical; settings: 20 mg/kg dose
Description: For experiments with zebrafish larvae, dry samples and compounds were dissolved in 100% dimethyl sulfoxide (DMSO, spectroscopy grade) as 100-fold concentrated stocks and diluted in embryo medium to a final concentration of 1% DMSO content, except for PTZ which was dissolved in embryo medium (0% DMSO). Control groups were treated with 1% DMSO (VHC) in accordance with the final solvent concentration of tested samples or compounds. For mice experiments, a mixture of poly-ethylene glycol M.W. 200 (PEG200) and 100% DMSO (spectroscopy grade) (1:1 PEG200:DMSO) was used as solvent and VHC. Pentylenetetrazole and valproate were purchased from Sigma-Aldrich.

[3] = test system: NMRI mice; test: Mouse 6-Hz (44 mA) psychomotor seizure model; format: in vivo; settings: 30 min before stimulation; for mean seizure duration (±SD): Example 8; for mean seizure duration: Example 7
Description: Experiments were performed as described in Copmans et al. (2018) ACS chemical neuroscience. […] Mice were manually restrained and a drop of ocular anesthetic (0.5% lidocaine) was applied to the corneas before stimulation. Following electrical current stimulation, the mouse was released in a transparent cage for behavioral observation, which was video-recorded. […] In addition, facial and mouth jerking as well as head nodding were observed occasionally. Seizure durations were measured during the experiment by experienced researchers, familiar with the different seizure behaviors. In addition, seizure durations were determined by blinded video analysis to confirm or correct the initial observations. Data are expressed as mean±SD.

[4] = test system: zebrafish larvae; test: Zebrafish pentylenetetrazole (PTZ) seizure model, behavioral analysis; format: in vivo, zebrafish (Danio rerio); settings: 2 hours incubation; for antiseizure activity at lower concentrations: MTC/2 and MTC/4
Description: Experiments were performed as [Add references please: Copmans (2018), ACS chemical neuroscience; Copmans et al. (2018) Neurochem. Int. 112, 124-133; Afrikanova et al. (2013) PLoS One 8, e54166; Orellana-Paucar et al. (2012) Epilepsy Behav 24, 14-22]. In brief, a single 7 dpf larva was placed in each well of a 96-well plate and treated with either VHC (1% DMSO) or test compound in a 100 μl volume. Larvae were incubated in dark for 2 hours at 28° C., whereafter 100 μl of either VHC (embryo medium) or 40 mM PTZ (20 mM working concentration) was added to each well. Next, within 5 minutes the 96-well plate was placed in an automated tracking device (ZebraBox Viewpoint, France) and larval behavior was video recorded for 30 minutes. The complete procedure was performed in dark conditions using infrared light. Total locomotor activity was recorded by ZebraLab software (Viewpoint, France) and expressed in actinteg units, which is the sum of pixel changes detected during the defined time interval (5 minutes). Larval behavior was depicted as mean actinteg units per 5 minutes in the 30 minute recording period and over consecutive time intervals. Data are expressed as mean±SD for single experiments with regards to screening, and as mean±SEM for single experiments and for independent experiments of which the means or data are pooled.
In the first secondary screen three replicate wells were used per sample (100 μg/mL) tested and each experimental plate contained 12 internal control wells. In the second secondary screen six replicate wells were used per sample and concentration tested (100, 33, and 11 μg/mL), again 12 internal control wells were used per experimental plate.

[5] = test system: zebrafish larvae; test: Toxicity evaluation, maximum tolerated concentration (MTC) in zebrafish larvae; format: in vivo, zebrafish (Danio rerio); settings: highest concentration without death, toxicity or locomotor impairment
Description: Maximum tolerated concentration (MTC) was determined prior to further experiments and used as the highest test concentration. Experiments were described as described in Copmans et al. (2018) ACS chemical neuroscience. MTC was investigated by exposing 12 larvae of 6 dpf to a range of concentrations in a 100 μl volume during 18 hours. The following parameters were investigated after 2 and 18 hours of exposure: touch response, morphology, posture, edema, signs of necrosis, swim bladder, and heartbeat.

Compound | cumulative duration of PTZ-induced epileptiform events [1] | number of PTZ-induced epileptiform events [1] | solubility in the solvent [2] | mean seizure duration (±SD) ([3]; 2.5 mg/kg i.p.) [s] | mean seizure duration (±SD) ([3]; 5 mg/kg i.p.) [s] | mean seizure duration (±SD) ([3]; 10 mg/kg i.p.) [s] | antiseizure activity at lower concentrations [4] | PTZ-induced seizure behavior in 5 min time intervals ([4]; at MTC) | PTZ-induced seizure behavior in the 30 min recording period ([4]; at MTC) | maximum tolerated concentration (MTC) [5] [µg/mL] | PTZ-induced seizure behavior in 5 min time intervals ([4]; at the tested concentration) | also measured
Cc1cc2ccc3c(c2cn1)OC(C(C)C)C3=O (stereo not shown) [TMC-120A] | significantly lowered | significantly lowered | poor solubility | 13 | 20 | 17 | No significant antiseizure activity | significant reduction | not TMC-120A, significantly lowered | 20 |  | percentage of larvae with PTZ-induced epileptiform activity [1]: significantly lowered the percentage of larvae with PTZ-induced epileptiform activity by more than half; mean seizure duration (±SD) ([3]; 1.25 mg/kg i.p.): 15 s
CC(C)=C1Oc2c(ccc3cc(C)ncc23)C1=O [TMC-120B] | significantly lowered | significantly lowered | poor solubility | 27 | 23.5 | 10 | No significant antiseizure activity | significant reduction | significantly lowered | 20 |  | mean seizure duration ([3]; 2.5 mg/kg i.p.): 27 s; mean seizure duration ([3]; 5 mg/kg i.p.): 23.5 s; mean seizure duration ([3]; 10 mg/kg i.p.): 10 s; mean seizure duration ([3]; 20 mg/kg i.p.): 27.5 s; mean seizure duration (±SD) ([3]; 20 mg/kg i.p.): 27.5 s
Cc1cc2ccc3c(c2cn1)OC(O)(C(C)C)C3=O (stereo not shown) [TMC-120C] |  |  |  |  |  |  |  |  |  |  | significant reduction | PTZ-induced seizure behavior in the 30 min recording period ([4]; at the tested concentration): lowered PTZ-induced seizure behavior
CC1=Cc2ccc3c(c2CO1)O[C@@H](C(C)C)C3=O [penicisochroman G] |  |  |  |  |  |  |  |  |  |  | significant reduction | 
CC1=Cc2ccc3c(c2CO1)OC(=C(C)C)C3=O [ustusorane B] |  |  |  |  |  |  |  |  |  |  | significant reduction | 
